Data reported in US4600772A, “Cephalosporin antibiotics” (Glaxo Group Limited, priority 1978, dated 1986).

Columns and labels:
[1] = tested on: wide range of commonly encountered pathogenic organisms; assay: Broad spectrum / general antibiotic activity; format: cell-based
[2] = in vivo
[3] = tested on: gram-negative bacteria; assay: Experimental infections in mice with gram-negative bacteria; format: in vivo
[4] = tested on: strains of Pseudomonas organisms; assay: Antibacterial activity against strains of Pseudomonas organisms; format: cell-based; details: e.g. strains of Pseudomonas aeruginosa
[5] = in vivo; remark: listed apart in the source
[6] = Acute toxicity tests in mice; details: mouse, in vivo
[7] = Bactericidal action; format: cell-based; details: at concentrations close to the minimum inhibitory concentration
[8] = Effect of increased inocula; format: cell-based
[9] = Nephrotoxicity in rats; format: in vivo; details: dosages of 2.0 g/kg
[10] = Effect of human serum on antibacterial properties; format: cell-based
[11] = tested on: Pseudomonas aeruginosa; assay: Experimental infections in mice with Pseudomonas aeruginosa; format: in vivo
[12] = Distribution in small rodents after subcutaneous injection

| SMILES | properties compared with the compound of formula (Ib) [1] | serum levels [2] | treatment of experimental infections in mice with gram-negative bacteria [3] | activity against strains of Pseudomonas organisms [4] | distribution in the body [5] | LD50 [6] [mg/kg] | bactericidal action [7] | effect of increased inocula [8] | nephrotoxicity [9] | antibiotic activity / general antibiotic properties [1] | impairment of antibacterial properties by human serum [10] | protection against strains of Pseudomonas aeruginosa [11] | protection compared with an aminoglycoside such as amikacin ([11]; versus amikacin) | therapeutic levels [12] |
| --- | --- | --- | --- | --- | --- | --- | --- | --- | --- | --- | --- | --- | --- | --- |
| Nc1nc(/C(=N/OC2(C(=O)O)CCC2)C(=O)N[C@@H]2C(=O)N3C(C(=O)[O-])=C(C[n+]4ccccc4)CS[C@H]23)cs1 [(6R,7R)-7-[(Z)-2-(2-aminothiazol-4-yl)-2-(1-carboxycyclobut-1-oxyimino)acetamido]-3-(1-pyridiniummethyl)-ceph-3-em-4-carboxylate] | not dissimilar properties |  |  |  |  |  |  |  |  |  |  |  |  |  |
| CC(C)(O/N=C(\C(=O)N[C@@H]1C(=O)N2C(C(=O)[O-])=C(C[n+]3ccccc3)CS[C@H]12)c1csc(N)n1)C(=O)O [compound of formula (Ib), (6R,7R)-7-[(Z)-2-(2-aminothiazol-4-yl)-2-(2-carboxyprop-2-oxyimino)acetamido]-3-(1-pyridiniummethyl)-ceph-3-em-4-carboxylate] |  | high and long lasting serum levels | successfully treated | excellent activity | well distributed | > 1000 | rapidly bactericidal | low | No nephrotoxicity was observed | possesses to an outstanding extent the general antibiotic properties | not impaired by human serum | excellent protection | comparable | useful therapeutic levels |
